Test results as given in patent US20160039897A1, “COMPOUNDS AND METHODS FOR TREATING OBESITY AND CONTROLLING WEIGHT” (THE UNIVERSITY OF NORTH CAROLINA AT CHAPEL HILL, priority 2013, published 2016).

Legend:
[1] = test system: primary preadipocytes from IGFBP-2−/− mice; assay: Differentiation of primary preadipocytes (immunoblot of adiponectin, aP2, PPARγ; Oil Red O staining); type: cell-based, mouse; details: for % suppression of adiponectin / reduction of PPARγ expression / reduction of aP2 expression / reduction of adiponectin expression: mean±SE; for % suppression of adiponectin: N=3; for relative potency as inhibitor of adipogenesis / preadipocyte differentiation (in words): comparison between peptides and proteins, immunoblot and Oil Red O; for reduction of PPARγ expression / reduction of aP2 expression / reduction of adiponectin expression: peptide 6 μg/ml in differentiation medium vs differentiation medium only, immunoblot relative to β-actin
Description: Primary preadipocytes were isolated from epididymal fat pads of 6 week old IGFBP-2^−/− mice. The cells were cultured using a previously described method (Boney, C M et al., 1994). The fat pads were weighed and the tissue was digested with an equal volume (W/V) of collagenase type A (Roche Applied Science, Indianapolis, Ind.) in HEPES buffer (0.1M and 1.5% BSA) for 45 min at 37° C. Following complete digestion, the preadipocytes were separated from the stromal vascular cells by centrifugation at 500×g for 5 min. The pelleted cells were washed with DMEM containing 30 mM glucose (Gibco, Grand Island, N.Y.) and passed through a 100 μm mesh filter (BD Biosciences, Bedford, Mass.). The cells were then plated in 6-well plates (Falcon Corp., Franklin Lakes, N.J.) at a density of 1.2-1.5×10^4 cells/ml in DMEM containing 30 mM glucose supplemented with penicillin (100 U/ml), streptomycin (100 μg/ml), and 10% fetal bovine serum hereafter referred to as standard medium. The cultures had the medium changed every 2 days until they reached confluency. Two day post-confluent cells were then exposed to differentiation medium (serum free DMEM containing 0.5 mM IBMX, 1 μM dexamethasone, and 5 μg/mL insulin) and incubated for 2 days. Experimental treatments that were added to this medium included either wild type IGFBP-2 (3 μg/ml), HBD1 peptide (6 μg/ml), HBD1 control peptide (6 μg/ml), HBD2 peptide (6 μg/ml), HBD2 control peptide (6 μg/ml), HBD1 mutant IGFBP-2 (3 μg/ml) or the HBD2 mutant IGFBP-2 (3 μg/ml). Cultures were maintained for two additional days in the standard medium supplemented with 5 μg/ml insulin. Thereafter, the cultures were kept in the fresh standard medium without insulin for additional two days.
After treatment, the cells were rinsed with PBS for two times and fixed with 10% formalin for 30 min at room temperature. After rinsing with distilled water for twice, 100% propylene glycol (Poly Scientific, Bay Shore, N.Y.) was added and incubated for 5 min. Before adding Oil Red O solution (Poly Scientific, Bay Shore, N.Y.), propylene glycol was removed. The cultures were incubated for 10 min at 60° C. Removing Oil Red O solution, the cultures were incubated with 80% propylene glycol for 5 min, After incubation, the cultures were rinsed with tap water twice. Images were captured using an Olympus IX81 inverted microscope.
Differentiated adipocytes were lysed in ice-cold lysis buffer (Xi et al., 2008). After centrifugation at 14,000×g for 10 min, solubilized proteins were quantified by the Bradford method (Thermo Scientific, Rockford, Ill.). Equal protein amounts of lysates were loaded onto a SDS-polyacrylamide gel and the proteins were separated, then transferred to an Immobilon filter and visualized by immunoblotting using the appropriate antibody. The primary antibody dilutions that were used were 1:1000 for the anti-adiponectin antibody (Affinity BioReagents, Golden, Colo.), 1:500 for the anti-PPARγ antibody (Cell Signaling Technology Inc., Beverly, Mass.), 1:2000 for the anti-apt antibody (ProSci Inc., Poway, Calif.) and 1:5000 for the anti-β-actin antibody (Sigma Chemical Company, St. Louis, Mo.). The immune complexes were visualized using enhanced chemiluminescence (Thermo Fischer Scientific, Rockford, Ill.).
Preadipocytes were prepared from mice and grown in culture as described herein. The respective mouse and human peptides were added to cells and the cells were lysed and the lysates were run on SDS gels as described. Immunoblotting for adiponectin was carried as described. Three concentrations of each peptide, 0.7, 2.0 and 6.0 μg/ml, were compared. The results were expressed as % suppression mean±SE(N=3) and were as follows.
Cell culture of primary preadipocytes. Preadipocytes were isolated from epididymal fat pads of IGFBP-2^−/− mice. The cultures had the medium changed every 2 days until they reached confluency. […]

IGFBP-2−/− mice = assay: Triglyceride content of right inguinal fat pad (colorimetric); type: in vivo, mouse; details: after 12 weeks; vs control peptide
Description: Body fat and lean muscle mass was measured at weeks 0 and 12 of treatment by magnetic resonance imaging analysis (EchoMRI-100, Echo Medical Systems, Houston, Tex.), a technique that measures fat mass and lean mass in unanesthetized animals (Kelly S A, et. al., 2010). After completion of 12 weeks of treatment, the mice were sacrificed. Blood was collected by cardiac puncture and allowed to sit for 4 hours before centrifuging at 3500 rpm×15 min. The serum was aspirated and stored at −20° C. until analysis. Abdominal inguinal and visceral fat pads were carefully dissected from each animal according to defined anatomical landmarks. […] The right inguinal fat pad was dissected separately and the triglyceride content of this tissue was determined by a colorimetric analysis (Pointe Scientific, Canton, Mich.), as previously described (Dann H, Kimura S 1992). Serum adiponectin and leptin were measured by ELISA following manufacturer's instructions (Millipore, Billerica, Mass.).
Body composition and serum adipokine measurement. Body fat and lean mass were measured at weeks 0 and 12 of treatment by magnetic resonance imaging analysis (EchoMRI-100, Echo Medical Systems, Houston, Tex.), using unanesthetized animals. […]

| Sequence | % suppression of adiponectin ([1]; 0.7 μg/ml peptide) [%] | % suppression of adiponectin ([1]; 2.0 μg/ml peptide) [%] | % suppression of adiponectin ([1]; 6.0 μg/ml peptide) [%] | potency in inhibiting preadipocyte differentiation relative to the HBD1 peptide ([1]; HBD2 peptide vs HBD1 peptide) [fold] | relative potency as inhibitor of adipogenesis / preadipocyte differentiation (in words) [1] | relative potency as inhibitor of adipogenesis / preadipocyte differentiation (in words) ([1]; listed as human peptide) | reduction of PPARγ expression [1] [%] | reduction of aP2 expression [1] | reduction of adiponectin expression [1] | reduction of triglyceride content in the inguinal fat pad (IGFBP-2−/− mice) [%] | relative potency as inhibitor of adipogenesis / preadipocyte differentiation (in words) ([1]; listed as mouse HBD1 peptide) |
| --- | --- | --- | --- | --- | --- | --- | --- | --- | --- | --- | --- |
| KHGLYNLKQCKMSLNGQR [HBD2 peptide] | 49.4 ± 10 | 87.9 ± 6.2 | 96.9 ± 7.0 | 1.8 | most potent inhibitors of adipogenesis | equipotent | 67±7 | completely inhibited | completely inhibited | 37±9 | – |
| KHLSLEEPKKLRP [HBD1 peptide] | – | – | – | – | less activity | – | 47±9 | 51±2% | 66±10% | 22±2 | equivalent in inhibiting preadipocyte differentiation |
